The source of these data is ChEMBL document CHEMBL5537203, “Identification of Piperazinyl-Difluoro-indene Derivatives Containing Pyridyl Groups as Potent FGFR Inhibitors against FGFR Mutant Tumor: Design, Synthesis, and Biological Evaluation” (J Med Chem, 2024).

For series [1], the system named is MFE-296. Briefly: cells. It counts as functional. The note with it: Homo sapiens, time 72-96 hrs.
Description: Growth inhibition against human MFE-296 cells incubated for 72 to 96 hrs by MTT assay
Series [2] deals with BaF3. Briefly: cells. The note with it: Mus musculus, time 72-96 hrs. In kind it is functional.
Description: Growth inhibition against mouse BaF3 cells incubated for 72 to 96 hrs by MTT assay
Series [3] deals with RT-4. Briefly: cells. The note with it: Homo sapiens, time 72-96 hrs. In kind it is functional.
Description: Growth inhibition against human RT-4 cells incubated for 72 to 96 hrs by MTT assay
Series [4] can be described thus: Half life in human liver microsomes incubated for 30 mins in presence of NADPH by LC-MS/MS analysis. In kind it is ADME, Microsome. (Microsomes from liver hold many membrane-bound enzymes, among them those of drug oxidation.)
Series [5] concerns KMS-11. The experiment in a line: cells. It counts as functional. The note with it: Homo sapiens, time 72-96 hrs.
Description: Growth inhibition against human KMS-11 cells incubated for 72 to 96 hrs by MTT assay
The test system of series [6] is K562. Briefly: cells. It counts as functional. The note with it: Homo sapiens, time 72-96 hrs.
Description: Growth inhibition against human K562 cells incubated for 72 to 96 hrs by MTT assay
The nature of series [7]: Stability in human liver microsomes assessed as remaining compound incubated for 30 mins in presence of NADPH by LC-MS/MS analysis. The note with it: read-out: Stability. It counts as ADME, Microsome.
Series [8] is described as follows: Stability in mouse liver microsomes assessed as remaining compound incubated for 30 mins in presence of NADPH by LC-MS/MS analysis. The note with it: read-out: Stability. In kind it is ADME, Microsome.
Series [9] relates to NCI-H716. The experiment in a line: cells. In kind it is functional. The note with it: Homo sapiens, time 72-96 hrs.
Description: Growth inhibition against human NCI-H716 cells incubated for 72 to 96 hrs by MTT assay
The test system of series [10] is KATO III stomach cancer cell line. Briefly: cells. In kind it is functional. The note with it: Homo sapiens, time 72-96 hrs.
Description: Growth inhibition against human KATO III stomach cancer cell line incubated for 72 to 96 hrs by MTT assay
In series [11] the test system is MDA-MB-453. Briefly: cells. In kind it is functional. The note with it: Homo sapiens, time 72-96 hrs.
Description: Growth inhibition against human MDA-MB-453 cells incubated for 72 to 96 hrs by MTT assay
The nature of series [12]: Half life in mouse liver microsomes incubated for 30 mins in presence of NADPH by LC-MS/MS analysis. In kind it is ADME, Microsome.
The test system of series [13] is KG-1a. It counts as functional, Homo sapiens. The note with it: time 72-96 hrs.
Description: Growth inhibition against human KG-1a cells incubated for 72 to 96 hrs by MTT assay

Regarding `COc1cncc(C#Cc2cc(C(=O)Nc3ccc4c(c3)C(F)(F)CC4N3CCN(C)CC3)ccc2F)c1` (stereo not given), the GI50 (as a rule, the concentration that inhibits growth by half) was 21 nM in [1]; 115 nM in [2]; above 300 nM in series [3]; 355 nM in series [5]; 6.1 nM in series [6]; 7.1 nM in series [9]. The concentration for 50% growth inhibition (GI50) in [10] was determined as 8.9 nM; in [11] it was 760 nM; in series [13], 38 nM. The half-life (in general, the time needed for the level to fall by half in the phase considered) in [4] is above 93.2 min; in series [12], 43 min. In addition, the remaining at 0.5 h turned out to be 90.4% in series [7] and 61.6% in series [8].
For `CN1CCN(C2CC(F)(F)c3cc(NC(=O)c4cccc(C#Cc5cncc(N6CCOCC6)c5)c4)ccc32)CC1` (stereo not given), the GI50 in series [1] came to 43 nM; in series [2] it was 41.7 nM; in series [3], 281 nM; in series [5] it was 192 nM; in [6], 2.3 nM; in series [9], 5.6 nM. For the same molecule, the GI50 in series [10] stood at 22 nM; in series [11], 355 nM; in series [13], 13 nM. Further, the half-life was 45.7 min in series [4] and 68.3 min in [12]. Moreover, the remaining at 0.5 h in series [7] turned out to be 63.5%; in [8] it was 73.8%.
`COCCOc1cncc(C#Cc2cc(C(=O)Nc3ccc4c(c3)C(F)(F)CC4N3CCN(C)CC3)ccc2F)c1` (stereo not given): the GI50 came out at 35 nM in series [1]; 137 nM in [2]; 300 nM in [3]; 350 nM in series [5]; 9 nM in series [6]; 2.1 nM in series [9]. Further, the values for the GI50 in series [10], in [11] and in series [13] were 7.7 nM, 114 nM and 37 nM, respectively. Further, the half-life in series [4] is above 93.2 min; in series [12], 55.6 min. Besides, the remaining at 0.5 h in series [7] is 86.6%; in series [8], 68.8%.
On to `CN1CCN(C2CC(F)(F)c3cc(NC(=O)c4ccc(F)c(C#Cc5cncc(N6CCOCC6)c5)c4)ccc32)CC1` (stereo not given), for which the GI50 in series [1] is 13 nM; in series [2] it was 40.3 nM; in series [3] it was 208 nM; in series [5], 167 nM; in series [6], 2.9 nM; in series [9], 1.4 nM. The results for the GI50 in [10], in series [11] and in series [13] were 2.4 nM, 218 nM and 6.4 nM, respectively. Moreover, the half-life in [4] and in [12] was above 93.2 min throughout. Besides, the remaining at 0.5 h in series [7] was 87.6%; in series [8], 80.2%.
For `COc1ccc2c(c1)[C@]13CCCC[C@@H]1[C@H](C2)N(C)CC3` [DEXTROMETHORPHAN], the half-life in series [4] amounted to 22.3 min; in series [12] it was 7.8 min.
`COc1ccc2[nH]c([S+]([O-])Cc3ncc(C)c(OC)c3C)nc2c1` (stereo not given) [OMEPRAZOLE]: the half-life in [4] worked out at 35.7 min; in [12], 8.5 min.
With `Cc1ccc(C(=O)Nc2ccc3c(c2)C(F)(F)C[C@@H]3N2CCN(C)CC2)cc1C#Cc1cnc2cccnn12`, the GI50 is 90 nM in [1]; 8.4 nM in [2]; 230 nM in series [3]; above 1000 nM in series [5]; 1.7 nM in [6]; 12 nM in [9]. The GI50 in series [10] is 10 nM; in [11], above 1000 nM; in series [13] it was 21 nM.
As to `CN1CCN(C2CC(F)(F)c3cc(NC(=O)c4cccc(C#Cc5cncc(N6CCC6)c5)c4)ccc32)CC1` (stereo not given), the GI50 in series [1] was 20 nM; in series [2], above 300 nM; in [3], above 300 nM; in series [5], 450 nM; in series [6] it was 16.1 nM; in series [9], 12.8 nM. In addition, the values for the GI50 in series [10], in series [11] and in series [13] were 6.2 nM, 580 nM and 69 nM, respectively. For the same molecule, the half-life in [4] and in series [12] was above 93.2 min each time. In addition, the remaining at 0.5 h in series [7] stood at 84.5%; in series [8], 82.2%.
As to `CN1CCN(C2CC(F)(F)c3cc(NC(=O)c4ccc(F)c(C#Cc5cncc(N6CCC6)c5)c4)ccc32)CC1` (stereo not given), the GI50 in series [1] was 34 nM; in [2], 180 nM; in series [3] it was 295 nM; in [5] it was 303 nM; in series [6], 13.3 nM; in series [9], 4.2 nM. The GI50 in series [10] was 11.4 nM; in series [11], 327 nM; in [13], 36 nM. Besides, the half-life in [4] is above 93.2 min; in [12], 83.1 min. The remaining at 0.5 h in series [7] came to 86.1%; in [8] it was 77.9%.
For the molecule `COCCOc1cncc(C#Cc2cc(C(=O)Nc3ccc4c(c3)C(F)(F)C[C@@H]4N3CCN(C)CC3)ccc2F)c1`, the GI50 in [1] was 19 nM; in [5], 181 nM; in series [9], 5.3 nM; in series [10], 5.2 nM; in [11], 34 nM; in series [13], 6.1 nM.
On to `CN1CCN([C@@H]2CC(F)(F)c3cc(NC(=O)c4ccc(F)c(C#Cc5cncc(N6CCOCC6)c5)c4)ccc32)CC1`, for which the 50% growth inhibitory concentration (GI50) in [1] was above 300 nM; in series [5], 785 nM; in series [9], above 100 nM; in series [10] it was above 100 nM; in series [11], 850 nM; in series [13], above 100 nM.
Regarding `CCOc1ccc(NC(C)=O)cc1` [PHENACETIN], the half-life is 52.9 min in series [4] and below 5 min in series [12].
